# Target: T1, endopeptidase 24.11 (Rattus norvegicus, UniProt P07861)
# T1 construct: A kidney was excised from a Wistar rat; from tissue; host or cells: Wistar rat kidney, crude membrane pellet suspended in HEPES buffer
# T1 sequence (P07861 1-750): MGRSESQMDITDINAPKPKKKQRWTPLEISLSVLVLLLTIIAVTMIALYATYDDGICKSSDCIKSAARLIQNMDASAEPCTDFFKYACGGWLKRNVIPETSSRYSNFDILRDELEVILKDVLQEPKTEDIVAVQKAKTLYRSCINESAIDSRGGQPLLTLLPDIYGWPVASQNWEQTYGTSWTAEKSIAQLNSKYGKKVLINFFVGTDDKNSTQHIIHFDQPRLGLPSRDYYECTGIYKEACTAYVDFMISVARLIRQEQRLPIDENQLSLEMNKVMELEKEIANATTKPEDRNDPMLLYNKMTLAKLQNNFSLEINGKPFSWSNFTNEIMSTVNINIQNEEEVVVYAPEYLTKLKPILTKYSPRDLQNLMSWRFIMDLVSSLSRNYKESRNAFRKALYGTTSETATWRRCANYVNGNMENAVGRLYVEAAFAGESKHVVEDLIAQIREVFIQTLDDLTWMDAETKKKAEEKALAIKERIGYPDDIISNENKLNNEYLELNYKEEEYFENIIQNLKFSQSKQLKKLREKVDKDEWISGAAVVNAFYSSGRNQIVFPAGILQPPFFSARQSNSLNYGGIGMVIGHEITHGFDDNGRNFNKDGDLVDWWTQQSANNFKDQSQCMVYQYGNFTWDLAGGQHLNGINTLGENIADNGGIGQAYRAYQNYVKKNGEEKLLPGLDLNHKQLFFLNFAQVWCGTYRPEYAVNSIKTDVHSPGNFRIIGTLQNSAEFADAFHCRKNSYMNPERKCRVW
# Assay: inhibition of endopeptidase 24.11 activity (DAGNPG cleavage, fluorescence, rat kidney enzyme preparation)
# Format: biochemical
# Settings: DAGNPG 50 μM, 37° C., 30 minutes, pH 7.4, rat kidney enzyme preparation; read-out: IC50 (concentration required to inhibit endopeptidase 24.11 by 50%)
# Text: As a method for measuring endopeptidase 24.11 activity, Florentin et al. had reported a method for measuring the enzyme activity by a degree of cleavage of a peptide bond between glycine and p-nitrophenylalanine using N-dansyl-D-alanyl-glycyl-p-nitrophenylalanyl-glycine (DAGNPG) as a substrate (Anal. Biochem., 141, 62-69 (1984)). An effect of the present compounds on endopeptidase 24.11 was examined according to the method described in the literature.
# An enzyme preparation used in this pharmacological test was prepared by extracting from a rat kidney by the following method according to the method of Malfloy et al. (J. Biol. Chem., 259, 14365-14370 (1984)).
# A kidney was excised from a Wistar rat. The kidney was homogenized in Tris-hydrochloric acid buffer (5 mM, pH 7.4, containing 125 mM D-mannitol and 12 mM magnesium chloride). The homogenate was centrifuged at low speed (1,000×g) to give a supernatant. The supernatant was ultracentrifuged ([…]) for 120 minutes. The resulting pellet was suspended in Tris-hydrochloric acid buffer (2.5 mM, pH 7.4, containing 62.5 mM D-mannitol and 6 mM magnesium chloride). The suspension was centrifuged at low speed and then ultracentrifuged again. The resulting pellet was suspended in HEPES buffer (5 mM, pH 7.4) to give the enzyme preparation.
# In order to examine the effect of the present compounds on the enzyme preparation, reactions were performed under the following condition using mixed solutions consisting of the composition shown in Table 1.
# Enzyme preparation 0.3-0.5 μg protein
# The above-mentioned solution (150 μl) was incubated at 37° C. for 30 minutes and then boiled at 100° C. for five minutes. To the solution was added 1.35 ml of Tris-hydrochloric acid buffer (50 mM, pH 7.4). The mixture was centrifuged at moderate speed (5,000×g) for five minutes to give a supernatant. Fluorescence intensity of the supernatant (excitation at 342 nm of wave length and emission at 562 nm) was measured.
# The degree of the inhibitory effect of each test compound on the enzyme preparation is expressed by the inhibition rate calculated by the following equation. [formula]
# A: fluorescence intensity of the sample in the absence of the test compound
# B: fluorescence intensity of the sample in the presence of the test compound
row,IC50 [nM],SMILES
1,0.55,"CC(C)CN(CC(CCc1ccccc1)C(=O)O)C(=O)N[C@@H](Cc1ccc(-c2ccccc2)cc1)C(=O)O (mixture of isomers) [Compound No. 5-6, (2S)-3-(4-Biphenylyl)-2-[3-[(2RS)-2-carboxy-4-phenylbutyl]-3-isobutylureido]propionic acid]"
2,4,"CC(C)CCC(CN(CC(C)C)C(=O)N[C@@H](Cc1ccc(-c2ccccc2)cc1)C(=O)O)C(=O)O (mixture of isomers) [Compound No. 7-3, (2S)-3-(4-Biphenylyl)-2-[3-[(2RS)-2-carboxy-5-methylhexyl]-3-isobutylureido]propionic acid]"
3,0.58,"CC(C)CN(CC(CCc1ccccc1)C(=O)O)C(=O)N[C@@H](Cc1ccc(-c2ccccc2)cc1)C(=O)O (single isomer, unassigned) [Compound No. 9-1, (2S)-3-(4-Biphenylyl)-2-[3-[(2S or 2R)-2-carboxy-4-phenylbutyl]-3-isobutylureido]propionic acid]"
4,1.3,"CC(C)CN(CCC(=O)O)C(=O)N[C@@H](Cc1ccc(-c2ccccc2)cc1)C(=O)O [Compound No. 5-1, (2S)-3-(4-Biphenylyl)-2-[3-(2-carboxyethyl)-3-isobutylureido]propionic acid]"

# Further lines, the compound ahead of its results:
row,SMILES,IC50 [nM]
1,"CC(C)CN(CC(CCc1ccccc1)C(=O)O)C(=O)N[C@@H](Cc1ccc2ccccc2c1)C(=O)O (mixture of isomers) [Compound No. 7-6, (2S)-2-[3-[(2RS)-2-Carboxy-4-phenylbutyl]-3-isobutylureido]-3-(2-naphthyl)propionic acid]",3.1
2,"CC(C)CN(CC(OCc1ccccc1)C(=O)O)C(=O)N[C@@H](Cc1ccc(-c2ccccc2)cc1)C(=O)O (single isomer, unassigned) [Compound No. 8-1, (2S)-2-[3-[(2S or 2R)-2-Benzyloxy-2-carboxyethyl]-3-isobutylureido]-3-(4-biphenylyl)propionic acid]",0.93
3,"CC(C)CN(CC(CCc1ccccc1)C(=O)NO)C(=O)N[C@@H](Cc1ccc(-c2ccccc2)cc1)C(=O)O (single isomer, unassigned) [Compound No. 10-1, (2S)-3-(4-Biphenylyl)-2-[3-[(2S or 2R)-2-hydroxycarbamoyl-4-phenylbutyl]-3-isobutylureido]propionic acid]",2.1
4,"CC(C)CN(CCC(=O)O)C(=O)N[C@@H](Cc1ccc2ccccc2c1)C(=O)O [Compound No. 5-21, (2S)-2-[3-(2-Carboxyethyl)-3-isobutylureido]-3-(2-naphthyl)propionic acid]",9.3

# Source: patent US5968980A, “1,3-dialkylurea derivative” (Santen Pharmaceutical Co., Ltd., priority 1994, dated 1999)
